According to publication PMC11302729, “Repurposing Hsp90 inhibitors as antimicrobials targeting two-component systems identifies compounds leading to loss of bacterial membrane integrity” (Microbiology Spectrum, 2024):

Assays:
[1] = biological target: T1, Hsp90α (Homo sapiens, UniProt P07900); assay: Hsp90 fluorescence polarization assay (displacement of FITC-labeled geldanamycin); details: compound concentration that decreases geldanamycin binding by 50%
T1 construct: expression strains containing GST-Hsp90 N(9-236) plasmid (Addgene: 22481); host or cells: E. coli BL21(DE3)
Experimental: The compounds were tested for inhibition of HK autophosphorylation in vitro. Of the 24 derivatives, 6 inhibited in vitro autophosphorylation of E. coli EnvZ at a concentration of 2 mM. […] Each compound has similar IC50 values for PhoR and EnvZ, indicating good potential for polypharmacology. We discounted the notion that DPP-induced aggregation of HKs was the reason for inhibiting autophosphorylation using native gel protein electrophoresis of HK proteins with and without DPPs (data not shown). We also investigated if the four DPP inhibiting HK autophosphorylation would also bind to Hsp90α in a fluorescence polarization assay. In this assay, inhibitors were tested for their ability to displace FITC-labeled geldanamycin (a well-known Hsp90 inhibitor) from the ATP pocket ([40]). All the compounds tested displaced FITC-labeled geldanamycin with IC50s in the nM range (Table 2).
The Hsp90α […] domain was purified as described by Goode et al. ([57]). E. coli BL21(DE3) expression strains containing GST-Hsp90 N(9-236) plasmid (Addgene: 22481) were grown in 1 L LB media supplemented with 100 µg/mL ampicillin at 25°C and shaking (200 r.p.m.) to OD600 0.5, and protein expression was induced by the addition of 1 mM IPTG, and the culture was grown at 25°C and shaking (200 r.p.m.) overnight. Cells were then pelleted (4,000 g, 4°C), resuspended in 40 mL buffer A2 (50 mM Tris-HCl pH 8.0, 0.5 M NaCl, and 1 mM phenylmethanesulfonyl fluoride), sonicated (4°C, 5 min with pulses of 15 sec at intervals of 1 min), and centrifuged (11,000 g, 4°C, 60 min). Supernatant was passed through a 5-mL Glutathione Sepharose 4B (GE Healthcare) equilibrated with buffer A2 using an AKTA system (GE Healthcare). Column was washed using buffer A2, and a linear gradient of glutathione (0–0.25M) in buffer A2 was applied. Fractions containing Hsp90α were collected, mixed, and concentrated by ultrafiltration.
Competitive binding of inhibitors to Hsp90 was measured by fluorescence polarization assay as previously reported ([58]). Inhibitors were assayed in different concentrations (range 0–1,000 µM) in a Nunc black, low binding 384-well plate (Thermo Scientific). Each reaction was prepared in reaction mix (100 mM Tris-Cl, pH 7.4, 20 mM KCl, 6 mM MgCl2, 2 mM DTT, and 0.1 mg/mL bovine serum albumin) in a final volume of 50 µL containing 350 nM Hsp90 and 100 nM geldanamycin FITC labeled (BPS Bioscience, San Diego, CA, USA) and the inhibitor in the correspondent concentration. Blank control containing no enzyme and no geldanamycin, enzyme-positive control containing no inhibitor, and enzyme-negative control containing no Hsp90 were included. Fluorescence polarization was then measured using Tecan SPARK (Tecan, Grödig, Austria) at wavelengths λex = 485 nm and λem = 530 nm.

[2] = Haemolysis assay; type: cell-based, sheep; details: sheep, sheep red blood cells, 2% suspension; read-out: RBC hemolysis
How it was run: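 Sheep erythrocytes at 2% in PBS exposed to compound, with untreated, 1% DMSO and 2% Triton-X controls. After centrifugation, supernatant haemoglobin read at 540 nm; % haemolysis = (test − DMSO)/(Triton − DMSO), quadruplicate.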

[3] = test system: HEK293 cells; assay: Cell imaging of HEK293 cells; type: cell-based; details: LC20, 24 hours exposure, 40× amplification
Experimental: HEK293 cells were plated in 24-well plates on exposure medium for 24 hours (500,000 cells/well). Cells were exposed to a subset of compounds at a lethal concentration of 20% (LC20). After 24 hours exposure, cells were fixed with 2% glutaraldehyde for 15 min, washed with water, permeabilized with 0.5% Triton-X, washed twice with water, and stained with Toluidine blue 0.3%. For 100× amplification, cells were harvested by pipetting up and down in 250 µL of exposure medium. Cells from three wells treated with the same compound were pooled and centrifuged for 5 min at 1,500 r.p.m. The cell pellet was fixed in 0.1 M cacodylate buffer containing 2% glutaraldehyde (vol/vol) (pH 7.4). After 1 hour on ice, the pellet was washed with 0.1 M cacodylate buffer and fixed in 0.1 M cacodylate buffer containing 1% osmium tetroxide (wt/vol). After a further hour on ice, the cell pellet was embedded in hard Epon and 1-µm slides were cut and stained with 1% toluidine blue and 1% borax (wt/vol). Cell abnormalities were assessed by microscopy using a Leica DM6B light microscope (Leica Microsystems B.V., Amsterdam, the Netherlands) at 100× magnification.

SMILES | IC50 [1] | hemolysis at 30 min [2] | Morphological changes of HEK293 cells [3]
Oc1ccc(-c2n[nH]c(C(F)(F)F)c2-c2ccc(Cl)cc2)c(O)c1 [DPP-5] | 496 nM | 100% | membrane blebbing
COc1ccc(-c2[nH]nc(C(F)(F)F)c2-c2ccc(Cl)cc2)c(O)c1 [DPP-6] | 798 nM | 100% | membrane blebbing
COc1ccc(-c2c(C(F)(F)F)n[nH]c2-c2ccc(O)cc2O)cc1 [DPP-12] | 574 nM |  | 
COc1ccc(-c2c(C(F)(F)F)n[nH]c2-c2ccc(OC)cc2O)cc1 [DPP-13] | 838 nM |  | 
